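Tested at 5 concentrations; 48 h exposure; 96-well plates; endpoints linearly interpolated, else capped at highest concentration. GI50 = concentration required for 50% inhibition of growth.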 The source made the active and inactive calls. No stated cut-off is given here; in the data, active = GI50 up to about 1.1 µM and inactive = higher.
Columns and labels:
Experiment in all cases: NCI anticancer screen, dose series, 48 h
IGROV-1 = tested on: IGROV-1
HCT-116 = tested on: HCT-116
COLO 205 = tested on: COLO 205
RXF 393 = tested on: RXF 393
T47D = tested on: T47D
Hs-578T = tested on: Hs-578T
OVCAR-3 = tested on: OVCAR-3
EKVX = tested on: EKVX
M14 = tested on: M14
SW-620 = tested on: SW-620
LOX IMVI = tested on: LOX IMVI
CCRF-CEM = tested on: CCRF-CEM
RPMI-8226 = tested on: RPMI-8226
SF-539 = tested on: SF-539
PC-3 = tested on: PC-3
NCI-H23 = tested on: NCI-H23
MDA-MB-231 = tested on: MDA-MB-231
ACHN = tested on: ACHN
HOP-62 = tested on: HOP-62
A549 = tested on: A549
SF-268 = tested on: SF-268
UO-31 = tested on: UO-31
K562 = tested on: K562
SN12C = tested on: SN12C
A498 = tested on: A498
SK-OV-3 = tested on: SK-OV-3
TK-10 = tested on: TK-10
HT-29 = tested on: HT-29
UACC-62 = tested on: UACC-62
MOLT-4 = tested on: MOLT-4
CAKI-1 = tested on: CAKI-1
DU-145 = tested on: DU-145
SK-MEL-28 = tested on: SK-MEL-28
SR = tested on: SR
SNB-19 = tested on: SNB-19
HL-60 = tested on: HL-60
NCI-H522 = tested on: NCI-H522
MCF7 = tested on: MCF7
MDA-MB-435 = tested on: MDA-MB-435
HOP-92 = tested on: HOP-92
KM12 = tested on: KM12
HCC 2998 = tested on: HCC 2998
HCT-15 = tested on: HCT-15
SK-MEL-5 = tested on: SK-MEL-5
BT-549 = tested on: BT-549
NCI/ADR-RES = tested on: NCI/ADR-RES
NCI-H226 = tested on: NCI-H226
NCI-H460 = tested on: NCI-H460
OVCAR-4 = tested on: OVCAR-4
Malme-3M = tested on: Malme-3M
OVCAR-8 = tested on: OVCAR-8
MDA-N = tested on: MDA-N
UACC-257 = tested on: UACC-257
786-0 = tested on: 786-0
U-251 = tested on: U-251
OVCAR-5 = tested on: OVCAR-5
SNB-75 = tested on: SNB-75
SK-MEL-2 = tested on: SK-MEL-2
SF-295 = tested on: SF-295

Measured: GI50

O=C(C(Cl)=C(N1CCOCC1)N1CCOCC1)C(Cl)Cl
> 100 µM: HCT-15
inactive: IGROV-1 > 100 µM | HCT-116 > 100 µM | COLO 205 > 100 µM | RXF 393 > 100 µM | T47D > 100 µM | Hs-578T > 100 µM | OVCAR-3 > 100 µM | EKVX > 100 µM | M14 > 100 µM | SW-620 > 100 µM | LOX IMVI > 100 µM | CCRF-CEM 56.9 µM | RPMI-8226 > 100 µM | SF-539 > 100 µM | PC-3 > 100 µM | NCI-H23 > 100 µM | MDA-MB-231 > 100 µM | ACHN > 100 µM | HOP-62 > 100 µM | A549 > 100 µM | SF-268 > 100 µM | UO-31 > 100 µM | K562 > 100 µM | SN12C > 100 µM | A498 > 100 µM | SK-OV-3 > 100 µM | TK-10 > 100 µM | HT-29 > 100 µM | UACC-62 > 100 µM | MOLT-4 > 100 µM | CAKI-1 > 100 µM | DU-145 > 100 µM | SK-MEL-28 > 100 µM | SR 34.5 µM | SNB-19 > 100 µM | HL-60 > 100 µM | NCI-H522 > 100 µM | MCF7 94.2 µM | MDA-MB-435 > 100 µM | HOP-92 > 100 µM | KM12 > 100 µM | HCC 2998 > 100 µM | SK-MEL-5 > 100 µM | BT-549 > 100 µM | NCI/ADR-RES > 100 µM | NCI-H226 > 100 µM | NCI-H460 > 100 µM | OVCAR-4 > 100 µM | Malme-3M > 100 µM | OVCAR-8 > 100 µM | MDA-N > 100 µM | UACC-257 > 100 µM | 786-0 > 100 µM

CC(C)Cn1cnc2c(SCc3ccccn3)nc(N)nc21
inactive: IGROV-1 > 100 µM | HCT-116 > 100 µM | COLO 205 > 100 µM | RXF 393 > 100 µM | T47D 80.7 µM | Hs-578T > 100 µM | OVCAR-3 > 100 µM | EKVX > 100 µM | M14 > 100 µM | SW-620 > 100 µM | LOX IMVI > 100 µM | CCRF-CEM > 100 µM | RPMI-8226 > 100 µM | PC-3 > 100 µM | NCI-H23 > 100 µM | MDA-MB-231 > 100 µM | ACHN > 100 µM | HOP-62 > 100 µM | A549 > 100 µM | SF-268 > 100 µM | UO-31 > 100 µM | K562 > 100 µM | SN12C > 100 µM | A498 > 100 µM | SK-OV-3 > 100 µM | TK-10 > 100 µM | HT-29 > 100 µM | UACC-62 > 100 µM | U-251 > 100 µM | CAKI-1 > 100 µM | DU-145 > 100 µM | SK-MEL-28 > 100 µM | SR > 100 µM | SNB-19 > 100 µM | OVCAR-5 > 100 µM | SNB-75 51.9 µM | SK-MEL-2 > 100 µM | HL-60 > 100 µM | NCI-H522 > 100 µM | MCF7 > 100 µM | MDA-MB-435 > 100 µM | HOP-92 > 100 µM | KM12 > 100 µM | HCC 2998 > 100 µM | SK-MEL-5 > 100 µM | BT-549 > 100 µM | NCI/ADR-RES > 100 µM | NCI-H226 > 100 µM | NCI-H460 > 100 µM | OVCAR-4 > 100 µM | Malme-3M > 100 µM | SF-295 > 100 µM | OVCAR-8 > 100 µM | MDA-N > 100 µM | UACC-257 > 100 µM | 786-0 > 100 µM
> 100 µM: HCT-15

Source: ChEMBL document CHEMBL1201862, “PubChem BioAssay data set” (2004)
